Measurements reported in ChEMBL document CHEMBL1148572, “1-((S)-2-aminopropyl)-1H-indazol-6-ol: a potent peripherally acting 5-HT2 receptor agonist with ocular hypotensive activity” (J Med Chem, 2006).

Key:
[1] = target: T1, Endothelin-1 receptor (Homo sapiens) (UniProt P25101); assay: Inhibition of human recombinant endothelin 1 receptor at 100 nM
T1 sequence (whole entry): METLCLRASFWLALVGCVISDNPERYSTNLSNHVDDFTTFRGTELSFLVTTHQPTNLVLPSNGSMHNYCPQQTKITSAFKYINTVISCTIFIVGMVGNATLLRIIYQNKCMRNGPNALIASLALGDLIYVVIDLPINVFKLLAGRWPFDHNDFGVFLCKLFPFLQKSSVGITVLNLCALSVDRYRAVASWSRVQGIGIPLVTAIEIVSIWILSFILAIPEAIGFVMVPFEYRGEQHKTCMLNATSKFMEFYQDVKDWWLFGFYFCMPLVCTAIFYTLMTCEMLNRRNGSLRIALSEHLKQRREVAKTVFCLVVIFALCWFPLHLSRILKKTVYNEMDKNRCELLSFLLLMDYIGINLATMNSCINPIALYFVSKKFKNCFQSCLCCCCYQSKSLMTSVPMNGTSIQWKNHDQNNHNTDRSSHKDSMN

[2] = target: Muscarinic acetylcholine receptor (Homo sapiens) (UniProt P20309+P08173+P11229+P08172+P08912); assay: Inhibition of non selective binding to muscarinic receptor at 100 nM; type: protein assay
[3] = target: L-type calcium channel, dihydropyridine site (Homo sapiens, UniProt O60840+Q01668+Q13698+Q13936); assay: Inhibitory activity at dihydropyridine site of Calcium channel L type at 10 uM; type: protein assay
[4] = target: T2, Cysteinyl leukotriene receptor 1 (Homo sapiens) (UniProt Q9Y271); assay: Inhibition of leukotriene D4 at 100 nM
T2 sequence (whole entry): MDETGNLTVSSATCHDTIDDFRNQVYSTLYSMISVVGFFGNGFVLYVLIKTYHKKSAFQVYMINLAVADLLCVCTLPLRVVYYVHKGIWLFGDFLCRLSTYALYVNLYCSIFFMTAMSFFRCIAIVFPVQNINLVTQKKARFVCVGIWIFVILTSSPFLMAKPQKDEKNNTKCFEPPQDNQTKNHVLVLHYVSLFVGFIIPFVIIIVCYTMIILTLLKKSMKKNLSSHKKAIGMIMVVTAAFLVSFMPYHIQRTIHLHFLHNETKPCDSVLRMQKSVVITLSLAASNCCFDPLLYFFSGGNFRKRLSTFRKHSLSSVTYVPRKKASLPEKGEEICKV

[5] = target: T3, 5-hydroxytryptamine receptor 2C (Rattus norvegicus, UniProt P08909); assay: Activity against recombinant rat 5HT2C mediated intracellular calcium mobilization by FLIPR in SR3T3 cells
T3 sequence (P08909 whole entry): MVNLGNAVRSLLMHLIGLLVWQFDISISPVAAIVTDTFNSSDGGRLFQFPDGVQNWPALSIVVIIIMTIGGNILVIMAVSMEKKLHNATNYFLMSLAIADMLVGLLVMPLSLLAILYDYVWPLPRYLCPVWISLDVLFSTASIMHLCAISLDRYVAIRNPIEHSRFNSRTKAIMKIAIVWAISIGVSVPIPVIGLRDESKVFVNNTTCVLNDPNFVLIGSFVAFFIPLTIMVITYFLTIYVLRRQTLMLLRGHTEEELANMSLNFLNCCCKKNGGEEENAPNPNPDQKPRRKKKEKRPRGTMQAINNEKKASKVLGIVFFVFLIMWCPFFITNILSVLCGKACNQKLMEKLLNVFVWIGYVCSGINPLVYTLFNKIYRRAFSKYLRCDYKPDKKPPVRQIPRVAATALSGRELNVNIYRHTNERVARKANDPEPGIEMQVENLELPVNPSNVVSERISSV

[6] = target: Adenosine receptor (Homo sapiens) (UniProt P30542+P29275+P0DMS8+P29274); assay: Inhibition of non selective binding to adenosine receptor at 1 nM; type: protein assay
[7] = target: 5-hydroxytryptamine receptor 7 (Homo sapiens, UniProt P34969); assay: Activity at 5HT7 receptor expressed in human corneal epithelial CEPI-17-CL4 cells by adenylyl cyclase assay; type: functional, cell-based, Cornea
Chain of 5-hydroxytryptamine receptor 7 (P34969 whole entry): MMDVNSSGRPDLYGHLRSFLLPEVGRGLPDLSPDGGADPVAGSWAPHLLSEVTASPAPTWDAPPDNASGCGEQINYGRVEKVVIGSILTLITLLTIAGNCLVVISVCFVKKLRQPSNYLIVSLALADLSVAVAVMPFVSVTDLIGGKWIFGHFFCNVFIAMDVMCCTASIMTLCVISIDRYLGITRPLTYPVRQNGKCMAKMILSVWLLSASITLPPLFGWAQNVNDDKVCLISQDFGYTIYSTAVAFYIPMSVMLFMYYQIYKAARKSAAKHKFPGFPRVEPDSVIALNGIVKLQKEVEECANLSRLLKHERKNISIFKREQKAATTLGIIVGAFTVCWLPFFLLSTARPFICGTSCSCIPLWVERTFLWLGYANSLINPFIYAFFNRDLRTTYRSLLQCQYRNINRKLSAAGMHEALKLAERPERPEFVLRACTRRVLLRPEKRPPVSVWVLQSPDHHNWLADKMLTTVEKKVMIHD

Chain of Adenosine receptor (Homo sapiens) (P0DMS8 whole entry, looked up): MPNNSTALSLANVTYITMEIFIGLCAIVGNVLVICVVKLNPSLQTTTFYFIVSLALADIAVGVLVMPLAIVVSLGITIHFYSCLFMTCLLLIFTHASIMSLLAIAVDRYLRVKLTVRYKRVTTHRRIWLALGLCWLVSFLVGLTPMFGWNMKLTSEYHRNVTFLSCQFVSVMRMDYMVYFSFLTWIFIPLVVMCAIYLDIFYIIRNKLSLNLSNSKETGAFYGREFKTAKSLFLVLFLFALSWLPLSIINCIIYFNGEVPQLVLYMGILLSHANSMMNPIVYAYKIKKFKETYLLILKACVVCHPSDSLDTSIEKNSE
Chain of Adenosine receptor (Homo sapiens) (P29274 whole entry, looked up): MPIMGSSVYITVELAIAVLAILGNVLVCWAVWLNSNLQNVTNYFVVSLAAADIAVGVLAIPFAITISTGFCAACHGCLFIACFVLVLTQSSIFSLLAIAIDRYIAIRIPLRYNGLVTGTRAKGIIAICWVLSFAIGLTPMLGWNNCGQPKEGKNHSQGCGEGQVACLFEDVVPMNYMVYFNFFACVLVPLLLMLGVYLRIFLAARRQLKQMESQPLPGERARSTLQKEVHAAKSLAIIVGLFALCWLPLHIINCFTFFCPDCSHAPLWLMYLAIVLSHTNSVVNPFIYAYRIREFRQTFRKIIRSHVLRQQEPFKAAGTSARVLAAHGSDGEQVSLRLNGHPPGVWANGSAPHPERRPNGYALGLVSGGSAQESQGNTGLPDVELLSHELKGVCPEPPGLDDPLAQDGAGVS
Chain of Adenosine receptor (Homo sapiens) (P29275 whole entry, looked up): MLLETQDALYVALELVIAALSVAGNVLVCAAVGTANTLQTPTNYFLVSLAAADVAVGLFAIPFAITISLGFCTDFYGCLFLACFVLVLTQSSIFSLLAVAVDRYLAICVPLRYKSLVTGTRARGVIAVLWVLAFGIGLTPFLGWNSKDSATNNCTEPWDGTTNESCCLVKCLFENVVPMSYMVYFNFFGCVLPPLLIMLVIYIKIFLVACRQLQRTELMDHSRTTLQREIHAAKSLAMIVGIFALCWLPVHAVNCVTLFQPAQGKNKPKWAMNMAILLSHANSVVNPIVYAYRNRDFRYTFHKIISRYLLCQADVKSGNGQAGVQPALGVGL
Chain of Adenosine receptor (Homo sapiens) (P30542 whole entry, looked up): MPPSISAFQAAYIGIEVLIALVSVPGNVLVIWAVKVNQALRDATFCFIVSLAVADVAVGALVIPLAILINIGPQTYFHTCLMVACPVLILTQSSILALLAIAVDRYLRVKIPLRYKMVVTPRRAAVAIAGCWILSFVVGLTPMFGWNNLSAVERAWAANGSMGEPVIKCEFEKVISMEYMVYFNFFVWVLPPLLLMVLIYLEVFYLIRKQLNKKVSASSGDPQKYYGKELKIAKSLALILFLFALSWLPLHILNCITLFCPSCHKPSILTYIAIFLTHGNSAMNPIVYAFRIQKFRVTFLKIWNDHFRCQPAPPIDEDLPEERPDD

C[C@H](N)Cn1ncc2ccc(O)cc21
inhibition [1]: 2.04%
inhibition [2]: 0.28%
inhibition at 10 µM [3]: 15.2%
inhibition [4]: 7.43%
EC50 [5]: 0.0037 µM
inhibition [6]: 11.2%
EC50 [7]: 5.6 µM
